Series [1] relates to P.A.F.-induced aggregation of blood platelets. Put plainly: anti-P.A.F. action in vitro (P.A.F.-induced platelet aggregation). It counts as cell-based. As to conditions: Oryctolagus cuniculus, 10^-5 mole/liter, read-out: Anti-P.A.F. activity in vitro, % inhibition of the P.A.F.-induced aggregation of blood platelets from rabbit blood. In outline:
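Washed rabbit platelets (4×10^9/ml stock suspension, aspirin-lysine treated) in modified Tyrode buffer pH 7.4 with 1.3 mM CaCl2 and gelatine; test substance at 10^-5 mol/l final, 90 s preincubation before P.A.F. Aggregation followed 4-5 min by aggregometer; % inhibition of P.A.F.-induced aggregation increase calculated.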

Another series relates to male mice. As to conditions: mouse, in vivo, po, 1440 min. Here is the method:
2. Determination of the minimum toxic dose.
Maximum doses of 300 mg/kg of the test substance were administered orally to male mice each weighing 20-25 g. The animals were carefully observed for symptoms of toxicity for 3 hours. All symptoms and deaths were additionally recorded over a period of 24 hours after administration. Associated symptoms were likewise observed and recorded. If death or severely toxic symptoms were observed, increasingly lower doses were administered to further mice. The lowest dose which caused death or severely toxic symptoms is indicated as the minimum toxic dose in the following Table B: […]

In series [2] the test system is cutaneous histamine induced anaphylactoid reactions. Put plainly: inhibition of the anaphylactoid cutaneous reaction induced by histamine. Particulars: Rattus norvegicus, po, 0.5 h; 2 × 10^-5 mole/kg p.o., one hour before histamine; assessed 30 minutes after provocation; read-out: Inhibitory action against cutaneous histamine induced anaphylactoid reactions in rats, % inhibition. The format is in vivo, Sprague-Dawley rats. As to the method:
1. Determination of the inhibition of the anaphylactoid cutaneous reaction induced by histamine.
The inhibition of the anaphylactoid cutaneous reaction induced by histamine was determined in Sprague-Dawley rats having body weights of 150-180 g.
In order to determine the histamine-induced anaphylactoid skin reaction, 50 μl of a physiological saline solution containing 0.8 mg/ml of histamine were injected into the animals intradermally on one flank. Immediately afterward, a solution of 26.4 mg/kg of a blue dye (Evan's Blue) was administered i.v. to the animals.
The test substances were dissolved in distilled water which contains 1% by volume of dimethylformamide and 1% by volume of Tween®20 (=polyoxyethylene(20) sorbitan monolaurate). One hour before the histamine injection, each animal received 2×10^-5 mol/kg of test substance, in each case administered orally in 0.5 ml of solution. A control group received only the solvent for comparison.
The histamine-induced anaphylactoid reactions which manifested themselves by edema formation, swelling and exudation of blue dye are assessed 30 minutes after provocation by the histamine injection. This is carried out by visual determination of the extent of the exudation of blue dye at the sites of edema formation. With the aid of comparison scales, the percentage inhibition of the anaphylactoid reactions produced by the test substances is determined in comparison with the reactions of the control animals not treated with test substance.
The results obtained with compounds of the formula I by the above test method are reproduced in the following table A. The example numbers given as identifiers for the compounds of formula I refer to the subsequent preparative examples.

Another series deals with 5-lipoxygenase. Put plainly: inhibition of 5-lipoxygenase activity in polymorphonuclear rat leucocytes (LTB4 formation). The format is cell-based. Particulars: 10^-5 mol/l; 22° C. Summed up: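 Thioglycolate-elicited peritoneal PMNs from male Sprague-Dawley rats (0.5×10^6 cells) preincubated 15 min at 22 °C with 10 μM compound in HEPES-buffered HBSS, then stimulated with 5 μM calcimycin for 10 min. LTB4 quantified by reverse-phase HPLC at 270 nm; % inhibition versus solvent control.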

Structures are written as SMILES. A value given as a limit tells only on which side of the number the result lay.

The inhibition is the change of the read-out against control, counted positive when it falls.

Turning to `COc1ccc(-c2c(C)c3cccc4c3n2CC(CN2CCN(c3cc(C)ccn3)CC2)O4)cc1` (stereo not drawn) [Example 5, 2,3-Dihydro-5-(4-methoxyphenyl)-6-methyl-2-[4-(4-methylpyridin-2-yl)piperazin-1-ylmethyl]pyrrolo[1,2,3-de]-1,4-benzoxazine], the inhibition at 10 µM in series [1] amounted to 100%. In the series with male mice, the Minimum toxic dose was over 300 mg/kg.
Regarding `Cc1ccnc(N2CCN(CCC3Cn4c(-c5ccc(O)cc5)c(C)c5c(Cl)ccc(c54)O3)CC2)c1` (stereo not drawn) [Example 19], the inhibition in vivo at 20 µmol/kg in series [2] was found to be 45%. The inhibition at 10 µM in series [1] was 71%. Besides, in the series on 5-lipoxygenase, the “In vitro inhibitory activity on LTB4 formation in rat PMNs stimulated by calcium ionophore A23187” value was determined as 45%. The compound also showed a Minimum toxic dose in the series on male mice of over 300 mg/kg.

The values are drawn from patent US5474988A, “5-phenylpyrrolo-1,4-benzoxazine and 5-phenylpyrrolo-1,4-benzothiazine compounds, process and intermediates for their production and pharmaceutical compositions containing them” (Kali-Chemie Pharma GmbH, priority 1993, dated 1995).
